# Literature values in US10959921B2, “Emulsifying system for microemulsions with high skin tolerance” (Henkel AG & Co. KGaA, priority 2017, dated 2021).
# Settings: concentrations above about 1.5 wt. %
substance,measurement,value
lauryl glucoside,Skin tolerance in leave-on applications,skin intolerances
